# Source: US20130274834A1, “Method for the treatment of skin tissues” (priority 2006, published 2013)
# “And” between values parts separate entries of the source, which are not always exact repeats. Identical values can stand only once. “Also recorded” adds a separate entry of the source.
# What was measured:
# Type in all cases: in vivo, human
# [1] = tested on: facial papulo-pustular inflammatory acne lesions; experiment: Split-face radiant IR skin preparation prior to PDT for inflammatory type acne of the face (Example 6); settings: untreated side (no IR); one month later
# Protocol: A person was treated for facial papulo-pustular inflammatory acne lesions. After performing an acetone scrub on the treatment area, a radiant IR skin preparation was done on the right side of their face (970 nm, 80 mW/cm2, for 30 min). Then 5-aminolevulinic acid (Levulan™ Kerastick™) was applied to the skin and left for 90 min incubation time. […] Radiant IR skin preparation allows for a reduction in the number of PDT treatments necessary for significant clinical improvements.
# cystic acne lesions = experiment: Split face or split back pre-PDT radiant IR study, eleven cystic acne patients (Example 7); settings: one month after PDT; IR 970 nm 50 mW/cm2 15 min prior to 5-ALA; most patients
# Protocol: Study Design/Materials and Methods: Eleven (11) patients were enrolled in a split face or split back (pre-treated side versus control) study with a pre-approved IRB protocol. […] Lesion count was assessed both manually and by digital photography before and 4 weeks after one PDT procedure. Prior to the application of 5-ALA, one side of the face or back was pre-treated with radiant IR [CW LEDs emitting @ λ970 nm, irradiance 50 mW/cm2 for 15 minutes, total fluence 45 J/cm2], while the other half was used as control. PDT was then performed on the entire surface (face or back).
# [2] = tested on: inflammatory acne lesions; experiment: Randomized, controlled, rater-blinded split face/back trial of IR pre-treatment plus ALA-PDT in inflammatory acne (Example 9); set-up: key to Clinical Global Severity Assessment at Week-4, Median: 0: Clear; 1: Almost clear; 2: Mild; 3: Moderate; 4: Severe; 5: Very Severe; settings: for Clinical Global Severity Assessment at Week-4, Median: six-point rating scale, grade 0-5; for Change from Baseline in Lesion Counts, Total Inflammatory lesions, Median (reduction): week-4 (one month after PDT)
# Protocol: One side was pre-treated for 15 minutes with radiant IR light emitting diode (LED) (970 nm), while the other side was used as control. ALA was then applied after which PDT LED (630 nm) was performed on the entire face or back surface. Blinded lesion counts and clinical global assessment of severity were performed based on digital photographs before and four weeks after the PDT procedure.
# Inclusion criteria included patients with skin type I to III according to the Fitzpatrick Classification System [^xxviii]. Exclusion criteria comprised patients taking cortisone (Prednisone), anticoagulant therapy, or any drug known to increase photosensitivity. In addition, during the 12 months preceding the study, patients were required not to have used isotretinoin (Accutane), or applied topical steroids on the site to be treated. Moreover, oral antibiotics use, laser or topical anti-acne medication at the to-be-treated site were not permitted for eight weeks prior to the study. Patients gave written informed consent to participate in this trial in compliance with the US Code of Federal Regulations dealing with the conduct of clinical studies (21 CFR including parts 50 and 56 concerning informed consent and IRB regulations). The study was conducted according to Good Clinical Practice Guidelines and the principles of the Declaration of Helsinki, and was approved by the Institutional Review Board Services (Div. 1373737 Toronto, Canada).
# Patients were assigned to a split face or split back group to allow for within-patient assessments of clinical effects. Assignment was based on the patient's problem area. One side was randomly (using a coin flip) assigned to receive IR pre-treatment and ALA-PDT, and the other ALA-PDT alone to serve as control. The IR pre-treatment consisted of a 15 minute exposure to radiant IR LED at 970 nm ([…] using the LumiPhase-R/IR™, OPUSMED Inc. Montreal, Canada) to reach peak H2O absorption inside-out temperature of 45° C. Papillary dermis temperature was monitored with a needle probe throughout the session and up to 40 minutes (Type-T thermocouple, Omega, Montreal, Canada). ALA (20% Levulan Kerastick, DUSA Pharmaceuticals, USA) was then applied on both sides for 60 minutes, after which PDT with LED at 630 nm (50 mW/cm^2, 70 J/cm^2) was performed on the entire face or back surface for a duration of 23 minutes (LumiPhase-R/B™, OPUSMED Inc. Montreal, Canada). No cooling method was used. Digital photographs (Canon Dual Flash EOS 10D, Canon, Tokyo, Japan with EX SIGMA 50 mm 1:2.8 macro lens, Sigma, Aizu, Japan) were taken prior to and four weeks after the procedure. Each photograph was taken maintaining identical ambient lighting, pose and camera angles.
# Acne lesion counts were performed before and four weeks after the PDT treatment. All types of inflammatory (papules, pustules, nodules) and noninflammatory (open and closed comedones) acne lesions were counted. Lesion counts were performed based on the digital photographs by two non-treating physicians who were blinded to the treatment regimen (IR-treated or control side) and to the timing of the photographs (baseline or post-treatment).
# The global severity of acne was assessed at the end of the study by the […] non-treating physicians, as described above, using a six-point rating scale (Table 1). Clinical success was defined by grades 0 (clear) or 1 (almost clear).
# Adverse reactions were monitored throughout the study. Signs of erythema, oedema, scaling/crusting, bronzing, textural changes, hyperpigmentation, and hypopigmentation were documented during the time period of the clinical trial.
# Cronbach's alpha was calculated to assess inter-rater reliability in assessments. Reliability was deemed acceptable if Cronbach alpha was ≧7 allowing raters' assessments to be combined for analysis. The primary outcome variable was the percent change from baseline in inflammatory lesion count measured four weeks post-treatment. […]
structure (smiles),measurement,setting,value
NCC(=O)CCC(=O)O [5-aminolevulinic acid],PDT sessions needed for similar results,[1],needed an additional PDT session
same,"number of cystic lesions, pre-treated versus control side",cystic acne lesions,statistically significant decrease
same,tolerability of the treatment,"[2]; ALA-PDT with LED 630 nm, with or without IR pre-treatment, listed as ALA",overall well tolerated; also recorded: well tolerated with no significant adverse events
same,treatment-related adverse effects,[2]; ALA-PDT with or without IR pre-treatment,No unusual treatment-related adverse effects were observed
same,"Clinical Global Severity Assessment at Week-4, Median",[2]; Control side (ALA-PDT alone),2
same,"Change from Baseline in Lesion Counts, Total Inflammatory lesions, Median (reduction)","[2]; Control side (ALA-PDT alone), listed as ALA",38% and 37.86%
same,"Clinical Global Severity Assessment at Week-4, Median",[2]; IR-Treated side,1
same,"Change from Baseline in Lesion Counts, Total Inflammatory lesions, Median (reduction)","[2]; IR-Treated side, listed as ALA",73% and 73.21%
same,additional benefit of IR-treated side in reduction of inflammatory lesion count,"[2]; IR-treated versus control side, week-4",35%
same,time to disappearance of slight erythema post-PDT,[2]; most patients,≤ 48 h
